For seven molecules, GI50 and TGI results are on record in PubChem BioAssay (NCI).

Some test systems named below: M14 melanoma; SF-295 CNS; NCI-H460 lung; SK-MEL-28 melanoma; HOP-62 NSCLC; 786-0 renal; TK-10 renal; EKVX NSCLC; CAKI-1 renal; SW-620 colon.
What all share (assay): inhibition of tumour cell growth, NCI panel, 48 h

Where “and” joins values, the source holds several entries; their conditions need not be identical. Equal values may be shown once.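 48-hour exposure; five concentrations; linearly interpolated endpoints. GI50: concentration for 50% inhibition of growth. Definition used: TGI = concentration required for complete inhibition of growth.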

Take `COc1cc(C2=NOC(c3cc(OC)c(OC)c(OC)c3)C2)ccc1OCCCCOc1cc2c(cc1OC)C(=O)N1CCC[C@H]1C=N2` (some centres not stated): the GI50 was 0.206 µM in the assay on M14 melanoma; 0.327 µM with SF-295 CNS; 0.275 µM in the assay with NCI-H460 lung; 0.229 µM in the assay on SK-MEL-28 melanoma; 0.29 µM in the assay with HOP-62 NSCLC; 0.282 µM in the assay on 786-0 renal. In addition, the GI50 was 0.273 µM in the assay with TK-10 renal, 0.471 µM in the assay with EKVX NSCLC, 0.245 µM in the assay with CAKI-1 renal and 0.246 µM with SW-620 colon. For the same molecule, the TGI turned out to be 0.432 µM in the assay on M14 melanoma; 1.28 µM in the assay on SF-295 CNS; 0.49 µM in the assay with SK-MEL-28 melanoma; 0.709 µM in the assay on HOP-62 NSCLC; 0.913 µM in the assay on 786-0 renal; 0.704 µM with TK-10 renal. Moreover, the TGI came to 5.43 µM in the assay with EKVX NSCLC, 0.631 µM in the assay with CAKI-1 renal and 0.855 µM in the assay on SW-620 colon.

Consider `FC(F)(F)c1cccc(Nc2nccc(-c3cnn4nc(-c5ccccc5)ccc34)n2)c1`, for which the GI50 was 12 µM in the assay on M14 melanoma; > 16.6 µM in the assay with SF-295 CNS; 5.23 µM in the assay on NCI-H460 lung; 8.11 µM in the assay with SK-MEL-28 melanoma; 8.1 µM with HOP-62 NSCLC; 5.22 µM in the assay on 786-0 renal. Also, the GI50 is 9.22 µM with TK-10 renal, > 21.2 µM in the assay with EKVX NSCLC, 10.2 µM in the assay with CAKI-1 renal and 8.65 µM in the assay on SW-620 colon. For the same molecule, the TGI in the assay on M14 melanoma is 24.5 µM; in the assay with SF-295 CNS, > 25 µM; with NCI-H460 lung, 11.1 µM; with SK-MEL-28 melanoma, > 20.4 µM; in the assay on HOP-62 NSCLC, > 20.7 µM; in the assay with 786-0 renal it was 11.2 µM. Besides, the TGI with TK-10 renal was > 19.2 µM; with EKVX NSCLC, > 25 µM; in the assay on CAKI-1 renal, > 25 µM; in the assay with SW-620 colon, > 21.4 µM.

Regarding `COc1cc2c(c(O)c1Br)C(=O)c1c(O)cc(C[C@H](C)O)cc1[C@H]2[C@H]1c2cc(C[C@H](C)O)cc(O)c2C(=O)c2c1cc(OC)c(Br)c2O`, the GI50 with M14 melanoma was 11.4 µM and 20.9 µM; in the assay on SF-295 CNS, 8 µM and 10.2 µM; in the assay on NCI-H460 lung it was 2.76 µM and 5.27 µM; in the assay on SK-MEL-28 melanoma it was 4.54 µM and 5.6 µM; with HOP-62 NSCLC, 6.76 µM and 19.1 µM; in the assay on 786-0 renal, 23 µM and 14.1 µM. Also, the GI50 in the assay on TK-10 renal is 13.8 µM and 31.4 µM; in the assay on EKVX NSCLC it was 4.86 µM and 6.86 µM; in the assay on CAKI-1 renal, 10.6 µM and 28.4 µM; in the assay on SW-620 colon, 5.36 µM and 19.9 µM. Moreover, the TGI was 45.8 µM and > 100 µM in the assay with M14 melanoma; 21.5 µM and 22.4 µM in the assay with SF-295 CNS; 21.4 µM and 19.4 µM in the assay with NCI-H460 lung; 32.9 µM and > 100 µM in the assay with SK-MEL-28 melanoma; 63.1 µM and 96 µM with HOP-62 NSCLC; 67.5 µM and > 100 µM with 786-0 renal. In addition, the TGI in the assay with TK-10 renal is 67.5 µM and > 100 µM; in the assay on EKVX NSCLC, 16.3 µM and 27.5 µM; with CAKI-1 renal, 33.3 µM and 94.6 µM; in the assay on SW-620 colon, 67.5 µM and > 100 µM.

As for `O=C1c2cc(Cl)ccc2S(=O)(=O)c2c(NCCCNCCO)nc3ccccc3c21`, the GI50 with M14 melanoma is 1.95 µM; in the assay with SF-295 CNS, 3.26 µM; in the assay with NCI-H460 lung it was 2.02 µM; in the assay on SK-MEL-28 melanoma it was 1.76 µM; in the assay with HOP-62 NSCLC, 4.54 µM; in the assay with 786-0 renal it was 1.71 µM. For the same molecule, the GI50 was 1.21 µM in the assay on TK-10 renal, 1.66 µM in the assay on EKVX NSCLC, 1.18 µM in the assay on CAKI-1 renal and 0.444 µM in the assay on SW-620 colon. Moreover, the TGI in the assay on M14 melanoma worked out at 4.9 µM; in the assay with SF-295 CNS it was 12.4 µM; in the assay with NCI-H460 lung, 4.73 µM; in the assay on SK-MEL-28 melanoma, 3.39 µM; with HOP-62 NSCLC, 16.7 µM; in the assay on 786-0 renal it was 3.34 µM. Moreover, the TGI in the assay with TK-10 renal turned out to be 2.46 µM; in the assay on EKVX NSCLC, 4.83 µM; with CAKI-1 renal it was 2.4 µM; with SW-620 colon it was 1.71 µM.

Take `CCOc1cc2c(Cl)ncnc2c(OCC)c1OCC`: the GI50 in the assay with M14 melanoma was 6.24 µM; in the assay with SF-295 CNS, 9.25 µM; in the assay with NCI-H460 lung it was 5.21 µM; with SK-MEL-28 melanoma, 2.15 µM; with HOP-62 NSCLC it was 15.5 µM; with 786-0 renal, 19 µM. The GI50 with TK-10 renal is 26.9 µM; with EKVX NSCLC, 13.3 µM; with CAKI-1 renal, 1.56 µM; with SW-620 colon it was 2.88 µM. The TGI in the assay on M14 melanoma is 20.1 µM; in the assay with SF-295 CNS, 29.2 µM; in the assay on NCI-H460 lung it was 17.7 µM; in the assay on SK-MEL-28 melanoma, 5.26 µM; in the assay with HOP-62 NSCLC, 30.9 µM; with 786-0 renal, 36.8 µM. The TGI in the assay with TK-10 renal was > 76.2 µM; with EKVX NSCLC it was 29.5 µM; with CAKI-1 renal it was 3.03 µM; in the assay with SW-620 colon, 9.24 µM.

For the molecule `CC[C@@]1(O)C(=O)OCc2c1cc1n(c2=O)Cc2c-1nc1cc3c(cc1c2CCl)OCO3`, the GI50 is 0.032 µM in the assay on M14 melanoma; < 0.01 µM in the assay on SF-295 CNS; < 0.01 µM with NCI-H460 lung; 2.33 µM in the assay with SK-MEL-28 melanoma; < 0.01 µM in the assay with HOP-62 NSCLC; < 0.01 µM in the assay on 786-0 renal. Further, the GI50 in the assay on TK-10 renal was 0.292 µM; with EKVX NSCLC it was 0.994 µM; in the assay on CAKI-1 renal, < 0.01 µM; with SW-620 colon it was < 0.0136 µM. Besides, the TGI with M14 melanoma is 0.403 µM; in the assay on SF-295 CNS it was 0.0252 µM; in the assay on NCI-H460 lung, < 0.0318 µM; in the assay with SK-MEL-28 melanoma it was 18.9 µM; in the assay on HOP-62 NSCLC, < 0.0479 µM; with 786-0 renal, 0.238 µM. The TGI in the assay with TK-10 renal is 11.1 µM; with EKVX NSCLC it was > 44.6 µM; in the assay on CAKI-1 renal, 0.477 µM.

For `CC(=O)OC[C@]1(C)C=C2C(=O)[C@](C)(O)C3(CC3)C(C)=C2[C@H]1O`, the GI50 in the assay on M14 melanoma is 0.0899 µM; with SF-295 CNS, 0.131 µM; in the assay on NCI-H460 lung it was 0.0282 µM; in the assay with SK-MEL-28 melanoma, 0.215 µM; in the assay with HOP-62 NSCLC, 0.239 µM; in the assay on 786-0 renal it was 0.0411 µM. Further, the GI50 was 0.233 µM in the assay with TK-10 renal, 0.252 µM in the assay with EKVX NSCLC, 0.041 µM with CAKI-1 renal and 0.044 µM in the assay on SW-620 colon. The TGI worked out at 1.56 µM with SF-295 CNS; 0.0844 µM in the assay with NCI-H460 lung; 0.575 µM in the assay on SK-MEL-28 melanoma; 1.23 µM in the assay on HOP-62 NSCLC; 0.35 µM in the assay with 786-0 renal; 2.99 µM with TK-10 renal. Further, the TGI in the assay on EKVX NSCLC was 1.2 µM; with CAKI-1 renal, 2.58 µM; in the assay with SW-620 colon it was > 50 µM.
